Laboratory results as given in article PMC4579270, “Identification and Characterization of an Irreversible Inhibitor of CDK2” (Chemistry & Biology, 2015).
Read-outs that look alike come from different tables or passages of the source.

Tests used:
Type in all cases: biochemical
[1] = target: MSK1 (Homo sapiens, UniProt O75582); experiment: Dundee protein kinase screen; conditions: MSK1, 1µM; read-out: %Remaining activity at 1µM NU6300
Experimental: (§1) Prior to determining its cellular activity, we carried out a screen to assess its selectivity against a panel of 131 protein kinases under conditions that would not distinguish between a reversible or irreversible mode of action. […] These 13 kinases and 29 additional kinases, selected for their known sensitivity to other inhibitors within the purine series, were then tested in a modified screening format in which the assay was repeated following a 4-hr pre-incubation (Table S3B). […] However, conformational flexibility around the active site may promote such an interaction with a residue from another part of the structure ([Martin et al., 2012]).
(§2) Table S3, Related to Figure 4. NCL-0006300 protein kinase selectivity. (A) NU6300 was tested at a single concentration of 1µM against 131 protein kinases present in a Dundee protein kinase screen (Bain et al., 2007). Values given are % activity remaining and are the average of duplicate measurements: 0-25% (red), 26-50% (yellow), 51-80% […]
(§3) (black) and above 81% (green). […]

[2] = target: NEK2a (Homo sapiens, UniProt P51955); experiment: Dundee protein kinase screen; conditions: read-out: %Remaining activity at 1µM NU6300
Experimental: as §1, §2, §3

[3] = target: T1, PAK5 (Homo sapiens, UniProt Q9P286); experiment: Dundee protein kinase screen; conditions: PAK5, 1µM; read-out: %Remaining activity at 1µM NU6300
Experimental: as §1, §2, §3

[4] = target: PIM2 (Homo sapiens, UniProt Q9P1W9); experiment: Dundee protein kinase screen; conditions: PIM2, 1µM; read-out: %Remaining activity at 1µM NU6300
Experimental: as §1, §2, §3

[5] = target: PKBα (Homo sapiens, UniProt P31749); experiment: Dundee protein kinase screen; conditions: read-out: %Remaining activity at 1µM NU6300
Experimental: as §1, §2, §3

[6] = target: SRPK1 (Homo sapiens, UniProt Q96SB4); experiment: Dundee protein kinase screen; conditions: SRPK1, 1µM; read-out: %Remaining activity at 1µM NU6300
Experimental: as §1, §2, §3

[7] = target: SYK (Homo sapiens, UniProt P43405); experiment: Dundee protein kinase screen; conditions: read-out: %Remaining activity at 1µM NU6300
Experimental: as §1, §2, §3

[8] = target: TESK1 (Homo sapiens, UniProt Q15569); experiment: Dundee protein kinase screen; conditions: TESK1, 1µM; read-out: %Remaining activity at 1µM NU6300
Experimental: as §1, §2, §3

[9] = target: WNK1 (Homo sapiens, UniProt Q9H4A3); experiment: Dundee protein kinase screen; conditions: WNK1, 1µM; read-out: %Remaining activity at 1µM NU6300
Experimental: as §1, §2, §3

[10] = target: YES1 (Homo sapiens, UniProt P07947); experiment: Dundee protein kinase screen; conditions: YES1, 1µM; read-out: %Remaining activity at 1µM NU6300
Experimental: as §1, §2, §3

[11] = target: p38β MAPK (Homo sapiens, UniProt Q15759); experiment: Dundee protein kinase screen; conditions: read-out: %Remaining activity at 1µM NU6300
Experimental: as §1, §2, §3

[12] = target: Aurora B (Homo sapiens, UniProt Q96GD4); experiment: Dundee kinase screen re-test (standard format and 4 hour pre-incubation)
Experimental: as §1
as §2, with “51-80% (black) and above 81% (green). The kinase domain sequences (as defined by UniProt) of” for “51-80%”
(§4) have a lysine residue at a position close to CDK2 Lys88 or Lys89. However, in the structure of tyrosine-protein kinase BTK (PDB ID: 3GEN) the residue equivalent to CDK2 Asp86 is Cys481 and therefore there is the potential for a covalent adduct to be formed through this side chain. Ephrin type-B receptor 3 (UniProt entry P54753) also encodes a cysteine residue (Cys717) that by sequence alignment would be predicted to be close to the CDK2 lysine pair. (B) Selected kinases were re-tested in the Dundee kinase screen against NU6300 at a single concentration of 0.5 µM both in the standard assay format and following a 4 hour pre-incubation in the presence of NU6300. Kinases which have very low activity after the 4 hour incubation so that results might not be wholly reliable are boxed in salmon. Kinases where the activity after a 4 hour pre-incubation is < 50% that in the standard assay format are highlighted in red.

[13] = target: CHK2 (Homo sapiens, UniProt O96017); experiment: as above; conditions: CHK2, 0.5µM
Experimental: as §1
as §2, with “51-80% (black) and above 81% (green). The kinase domain sequences (as defined by UniProt) of” for “51-80%”
as §4

[14] = target: MARK1 (Homo sapiens, UniProt Q9P0L2); experiment: as above; conditions: MARK1, 0.5µM
Experimental: as §1
as §2, with “51-80% (black) and above 81% (green). The kinase domain sequences (as defined by UniProt) of” for “51-80%”
as §4

[15] = target: T1, PAK5; experiment: as above; conditions: PAK5, 0.5µM
Experimental: as §1
as §2, with “51-80% (black) and above 81% (green). The kinase domain sequences (as defined by UniProt) of” for “51-80%”
as §4

[16] = target: VEG-FR1 (Homo sapiens, UniProt P17948); experiment: as above; conditions: VEG-FR1, 0.5µM
Experimental: as §1
as §2, with “51-80% (black) and above 81% (green). The kinase domain sequences (as defined by UniProt) of” for “51-80%”
as §4

[17] = 4hr RT preincubation, read-out: %Remaining activity at 0.5µM NU6300 - 4hr RT preincubation
[18] = usual format, read-out: %Remaining activity at 0.5µM NU6300 - Usual assay format

T1 sequence (Q9P286 whole entry): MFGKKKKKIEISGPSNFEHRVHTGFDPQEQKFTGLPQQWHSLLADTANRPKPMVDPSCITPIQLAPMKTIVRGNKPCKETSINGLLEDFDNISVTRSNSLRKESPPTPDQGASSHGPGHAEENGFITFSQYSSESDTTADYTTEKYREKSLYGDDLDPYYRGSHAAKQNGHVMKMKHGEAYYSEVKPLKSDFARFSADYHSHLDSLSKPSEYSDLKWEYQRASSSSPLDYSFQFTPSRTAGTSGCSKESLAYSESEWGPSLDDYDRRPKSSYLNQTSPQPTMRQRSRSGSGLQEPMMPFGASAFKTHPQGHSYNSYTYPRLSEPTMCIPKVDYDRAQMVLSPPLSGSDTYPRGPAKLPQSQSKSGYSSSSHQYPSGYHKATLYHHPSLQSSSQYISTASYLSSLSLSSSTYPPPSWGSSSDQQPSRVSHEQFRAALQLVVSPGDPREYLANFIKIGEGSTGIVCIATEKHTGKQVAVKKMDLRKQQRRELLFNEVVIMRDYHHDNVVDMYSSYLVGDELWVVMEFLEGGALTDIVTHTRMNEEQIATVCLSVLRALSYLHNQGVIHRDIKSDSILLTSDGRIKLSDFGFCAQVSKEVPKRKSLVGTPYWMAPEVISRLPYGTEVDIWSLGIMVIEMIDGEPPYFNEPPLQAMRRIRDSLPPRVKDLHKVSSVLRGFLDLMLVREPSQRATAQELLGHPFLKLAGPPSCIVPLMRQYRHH
CHK2, sequence (O96017 whole entry): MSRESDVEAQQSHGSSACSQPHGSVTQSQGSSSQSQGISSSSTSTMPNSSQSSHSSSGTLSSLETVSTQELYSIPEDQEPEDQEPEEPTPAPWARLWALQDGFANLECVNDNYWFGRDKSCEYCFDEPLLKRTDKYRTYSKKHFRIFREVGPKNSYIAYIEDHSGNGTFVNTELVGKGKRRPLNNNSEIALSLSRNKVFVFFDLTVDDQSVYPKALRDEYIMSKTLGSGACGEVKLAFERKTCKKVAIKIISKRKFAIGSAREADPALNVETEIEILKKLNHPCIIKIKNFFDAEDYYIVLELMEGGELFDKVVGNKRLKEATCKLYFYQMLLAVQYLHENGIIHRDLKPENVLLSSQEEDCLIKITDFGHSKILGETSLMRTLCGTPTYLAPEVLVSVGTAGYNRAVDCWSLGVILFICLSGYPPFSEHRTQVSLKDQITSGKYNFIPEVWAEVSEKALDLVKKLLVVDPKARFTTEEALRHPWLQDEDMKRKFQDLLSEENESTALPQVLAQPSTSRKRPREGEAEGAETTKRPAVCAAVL
MARK1, sequence (Q9P0L2 whole entry): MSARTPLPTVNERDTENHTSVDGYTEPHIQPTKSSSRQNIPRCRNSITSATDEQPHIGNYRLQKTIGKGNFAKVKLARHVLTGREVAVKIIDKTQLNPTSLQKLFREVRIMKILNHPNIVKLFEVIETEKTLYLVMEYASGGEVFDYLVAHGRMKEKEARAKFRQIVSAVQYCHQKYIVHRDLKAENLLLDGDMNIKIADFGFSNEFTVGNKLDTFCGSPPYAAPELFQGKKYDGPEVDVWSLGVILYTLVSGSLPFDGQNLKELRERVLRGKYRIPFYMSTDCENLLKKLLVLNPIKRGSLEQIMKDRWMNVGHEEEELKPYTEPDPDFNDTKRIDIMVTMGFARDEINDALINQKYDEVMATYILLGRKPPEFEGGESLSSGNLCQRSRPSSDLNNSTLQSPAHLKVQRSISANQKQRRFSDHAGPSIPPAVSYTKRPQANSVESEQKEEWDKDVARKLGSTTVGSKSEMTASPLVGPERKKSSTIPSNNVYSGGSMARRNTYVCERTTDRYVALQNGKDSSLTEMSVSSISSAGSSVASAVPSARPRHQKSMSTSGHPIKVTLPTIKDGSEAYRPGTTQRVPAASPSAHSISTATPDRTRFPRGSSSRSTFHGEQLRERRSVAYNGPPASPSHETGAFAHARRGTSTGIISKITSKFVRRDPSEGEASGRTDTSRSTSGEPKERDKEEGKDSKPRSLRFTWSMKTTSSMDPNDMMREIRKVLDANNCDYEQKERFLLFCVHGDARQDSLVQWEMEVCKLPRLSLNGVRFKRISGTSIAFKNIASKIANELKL
VEG-FR1, sequence (P17948 27-1338): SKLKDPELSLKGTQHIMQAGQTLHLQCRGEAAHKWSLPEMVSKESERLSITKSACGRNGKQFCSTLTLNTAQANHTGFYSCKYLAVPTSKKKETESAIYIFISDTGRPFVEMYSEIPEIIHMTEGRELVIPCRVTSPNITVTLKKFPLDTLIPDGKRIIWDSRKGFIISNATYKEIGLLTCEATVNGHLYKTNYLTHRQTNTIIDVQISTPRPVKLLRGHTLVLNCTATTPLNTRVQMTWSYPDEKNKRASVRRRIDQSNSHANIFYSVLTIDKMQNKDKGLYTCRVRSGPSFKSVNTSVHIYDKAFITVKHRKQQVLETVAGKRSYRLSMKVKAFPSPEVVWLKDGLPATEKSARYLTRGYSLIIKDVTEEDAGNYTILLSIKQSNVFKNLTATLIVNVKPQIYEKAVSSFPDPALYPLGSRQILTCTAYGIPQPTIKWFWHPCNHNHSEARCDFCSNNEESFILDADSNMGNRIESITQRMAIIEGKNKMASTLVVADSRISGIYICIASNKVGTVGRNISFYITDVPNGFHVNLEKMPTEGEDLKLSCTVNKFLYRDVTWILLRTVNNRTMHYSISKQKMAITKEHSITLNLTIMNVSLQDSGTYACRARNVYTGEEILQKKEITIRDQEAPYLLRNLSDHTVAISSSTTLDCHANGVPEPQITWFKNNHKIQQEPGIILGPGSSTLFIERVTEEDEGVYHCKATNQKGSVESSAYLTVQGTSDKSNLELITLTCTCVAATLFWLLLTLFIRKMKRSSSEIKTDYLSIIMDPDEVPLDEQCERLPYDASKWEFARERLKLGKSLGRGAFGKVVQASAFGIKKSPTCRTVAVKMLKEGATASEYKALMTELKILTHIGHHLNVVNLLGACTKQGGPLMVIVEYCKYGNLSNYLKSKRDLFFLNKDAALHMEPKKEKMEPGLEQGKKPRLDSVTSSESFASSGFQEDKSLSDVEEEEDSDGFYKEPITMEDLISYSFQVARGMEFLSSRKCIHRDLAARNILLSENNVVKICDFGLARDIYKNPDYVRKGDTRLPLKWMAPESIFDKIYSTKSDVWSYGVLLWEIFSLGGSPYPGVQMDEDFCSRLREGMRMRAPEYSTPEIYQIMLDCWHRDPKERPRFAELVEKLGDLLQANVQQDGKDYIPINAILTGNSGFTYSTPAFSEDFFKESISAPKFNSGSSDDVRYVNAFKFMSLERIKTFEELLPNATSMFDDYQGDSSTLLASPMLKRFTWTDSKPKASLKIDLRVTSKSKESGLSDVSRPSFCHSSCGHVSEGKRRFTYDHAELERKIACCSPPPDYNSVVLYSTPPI
Aurora B, sequence (Q96GD4 whole entry): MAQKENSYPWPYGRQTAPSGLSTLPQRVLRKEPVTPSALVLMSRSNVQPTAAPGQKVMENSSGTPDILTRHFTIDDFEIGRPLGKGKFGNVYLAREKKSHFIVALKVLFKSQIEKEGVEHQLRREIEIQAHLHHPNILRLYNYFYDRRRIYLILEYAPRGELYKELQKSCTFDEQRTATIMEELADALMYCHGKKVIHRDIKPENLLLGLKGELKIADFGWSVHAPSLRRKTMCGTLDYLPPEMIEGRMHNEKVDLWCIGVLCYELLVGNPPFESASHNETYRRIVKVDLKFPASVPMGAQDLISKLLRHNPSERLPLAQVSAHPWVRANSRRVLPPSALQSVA
YES1, sequence (P07947 whole entry): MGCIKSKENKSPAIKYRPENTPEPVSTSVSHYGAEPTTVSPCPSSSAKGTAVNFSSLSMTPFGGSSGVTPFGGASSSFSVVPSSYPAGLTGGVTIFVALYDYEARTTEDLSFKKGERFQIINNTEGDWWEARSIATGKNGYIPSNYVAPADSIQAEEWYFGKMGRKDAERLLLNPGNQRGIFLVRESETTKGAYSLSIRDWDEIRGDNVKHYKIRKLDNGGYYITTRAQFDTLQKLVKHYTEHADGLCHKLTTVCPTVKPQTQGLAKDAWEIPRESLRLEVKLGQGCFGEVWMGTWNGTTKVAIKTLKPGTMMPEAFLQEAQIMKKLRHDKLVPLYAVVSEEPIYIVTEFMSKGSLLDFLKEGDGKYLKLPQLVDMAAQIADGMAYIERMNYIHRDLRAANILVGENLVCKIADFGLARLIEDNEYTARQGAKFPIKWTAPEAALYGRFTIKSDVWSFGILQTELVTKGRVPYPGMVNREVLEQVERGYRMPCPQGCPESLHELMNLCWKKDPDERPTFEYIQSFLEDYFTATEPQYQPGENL
NEK2a, sequence (P51955 whole entry): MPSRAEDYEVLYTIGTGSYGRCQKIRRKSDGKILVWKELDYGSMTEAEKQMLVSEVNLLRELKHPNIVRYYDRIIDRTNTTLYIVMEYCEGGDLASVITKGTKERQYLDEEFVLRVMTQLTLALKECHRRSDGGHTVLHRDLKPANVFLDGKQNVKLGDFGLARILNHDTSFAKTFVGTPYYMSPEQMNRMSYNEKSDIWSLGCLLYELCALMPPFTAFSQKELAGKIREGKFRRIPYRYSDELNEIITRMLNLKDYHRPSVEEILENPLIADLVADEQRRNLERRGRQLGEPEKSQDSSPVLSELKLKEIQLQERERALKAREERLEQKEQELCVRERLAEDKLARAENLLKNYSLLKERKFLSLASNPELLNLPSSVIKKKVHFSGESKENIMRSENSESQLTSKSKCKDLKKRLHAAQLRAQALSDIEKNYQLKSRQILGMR
PIM2, sequence (Q9P1W9 whole entry): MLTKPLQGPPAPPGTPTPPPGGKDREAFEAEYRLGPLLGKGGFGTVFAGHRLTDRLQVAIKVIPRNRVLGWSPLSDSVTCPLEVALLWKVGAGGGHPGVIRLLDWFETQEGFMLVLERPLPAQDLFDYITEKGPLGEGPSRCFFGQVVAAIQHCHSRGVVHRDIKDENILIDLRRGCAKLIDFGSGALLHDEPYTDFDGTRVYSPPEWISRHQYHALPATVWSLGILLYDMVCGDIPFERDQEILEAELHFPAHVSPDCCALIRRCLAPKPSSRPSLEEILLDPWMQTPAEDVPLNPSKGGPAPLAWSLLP

C=CS(=O)(=O)c1ccc(Nc2nc(OCC3CCCCC3)c3nc[nH]c3n2)cc1 [NU6300, 6-(cyclohexylmethoxy)-N-(4-(vinylsulfonyl)phenyl)-9H-purin-2-amine]
remaining activity at 1 µM [1]: 69% | remaining activity at 1 µM [2]: 55% | remaining activity at 1 µM [3]: 48% | remaining activity at 1 µM [4]: 96% | remaining activity at 1 µM [5]: 101% | remaining activity at 1 µM [6]: 71% | remaining activity at 1 µM [7]: 58% | remaining activity at 1 µM [8]: 78% | remaining activity at 1 µM [9]: 103% | remaining activity at 1 µM [10]: 17% | remaining activity at 1 µM [11]: 67% | remaining activity at 0.5 µM [12, 17]: 87% | remaining activity at 0.5 µM [12, 18]: 43% | remaining activity at 0.5 µM [13, 17]: 120% | remaining activity at 0.5 µM [13, 18]: 55% | remaining activity at 0.5 µM [14, 17]: 38% | remaining activity at 0.5 µM [14, 18]: 37% | remaining activity at 0.5 µM [15, 17]: 53% | remaining activity at 0.5 µM [15, 18]: 76% | remaining activity at 0.5 µM [16, 17]: 51% | remaining activity at 0.5 µM [16, 18]: 43%
